Where two headings read alike, the source gives them in different places.
Tests used:
[1] = tested on: Key Broadleaf Weed and Crop Species; assay: Post-Emergent Test II: postemergent herbicidal activity, visual rating after 14 d (Table 7); type: in vivo; conditions: post-emergence, 336 h; for pest or weed control at 35 g/ha: 35 g ai/ha; for pest or weed control at 70 g/ha: 70 g ai/ha; for pest or weed control at 140 g/ha: 140 g ai/ha
Summary of the method: (§1)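 Greenhouse plants at first or second true leaf stage sprayed with compound in acetone/DMSO-based spray solution with crop oil concentrate and Triton X-155 at 187 L/ha, tested at highest rate and ½× to 1/16× dilutions; solvent blank controls. Injury rated visually 0–100% versus untreated plants after 14 d.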

[2] = tested on: Key Grass and Sedge Weeds as well as Grass Crops; assay: Post-Emergent Test II: postemergent herbicidal activity, visual rating after 14 d (Table 8); type: in vivo; conditions: post-emergence, 336 h; for pest or weed control at 35 g/ha: 35 g ai/ha; for pest or weed control at 70 g/ha: 70 g ai/ha; for pest or weed control at 140 g/ha: 140 g ai/ha
Summary of the method: as §1

[3] = lambsquarters (Chenopodium album), read-out: Visual Growth Reduction (%) 14 Days After Application CHEAL
[4] = oilseed rape, canola (Brassica napus), read-out: Visual Growth Reduction (%) 14 Days After Application BRSNN
[5] = redroot pigweed (Amaranthus retroflexus), read-out: Visual Growth Reduction (%) 14 Days After Application AMARE
[6] = sunflower (Helianthus annuus), read-out: Visual Growth Reduction (%) 14 Days After Application HELAN
[7] = velvetleaf (Abutilon theophrasti), read-out: Visual Growth Reduction (%) 14 Days After Application ABUTH
[8] = wild poinsettia (Euphorbia heterophylla), read-out: Visual Growth Reduction (%) 14 Days After Application EPHHL
[9] = barnyardgrass (Echinochloa crus-galli), read-out: Visual Growth Reduction (%) 14 Days After Application ECHCG
[10] = giant foxtail (Setaria faberi), read-out: Visual Growth Reduction (%) 14 Days After Application SETFA
[11] = maize, corn (Zea mays), read-out: Visual Growth Reduction (%) 14 Days After Application ZEAMX
[12] = rice (Oryza sativa), read-out: Visual Growth Reduction (%) 14 Days After Application ORYSA
[13] = wheat, spring (Triticum aestivum), read-out: Visual Growth Reduction (%) 14 Days After Application TRZAS
[14] = yellow nutsedge (Cyperus esculentus), read-out: Visual Growth Reduction (%) 14 Days After Application CYPES

Row | Compound | pest or weed control at 35 g/ha [1, 3] | pest or weed control at 70 g/ha [1, 3] | pest or weed control at 140 g/ha [1, 3] | pest or weed control at 35 g/ha [1, 4] | pest or weed control at 70 g/ha [1, 4] | pest or weed control at 140 g/ha [1, 4] | pest or weed control at 35 g/ha [1, 5] | pest or weed control at 70 g/ha [1, 5] | pest or weed control at 140 g/ha [1, 5] | pest or weed control at 35 g/ha [1, 6] | pest or weed control at 70 g/ha [1, 6] | pest or weed control at 140 g/ha [1, 6] | pest or weed control at 35 g/ha [1, 7] | pest or weed control at 70 g/ha [1, 7] | pest or weed control at 140 g/ha [1, 7] | pest or weed control at 35 g/ha [1, 8] | pest or weed control at 70 g/ha [1, 8] | pest or weed control at 140 g/ha [1, 8] | pest or weed control at 35 g/ha [2, 9] | pest or weed control at 70 g/ha [2, 9] | also measured
1 | COC(=O)c1nc(-c2ccc3c(c2)OC(F)(F)O3)nc(N)c1OC [Compound 62] | 0 to 29% | 0 to 29% | 0 to 29% | 45 to 59% | 45 to 59% | 60 to 74% | 0 to 29% | 0 to 29% | 0 to 29% | 85 to 94% | 75 to 84% | 95 to 100% | 45 to 59% | 85 to 94% | 85 to 94% | 95 to 100% | 95 to 100% | 95 to 100% | 85 to 94% | 85 to 94% | pest or weed control at 140 g/ha [2, 9]: 95 to 100%; pest or weed control at 35 g/ha [2, 10]: 0 to 29%; pest or weed control at 70 g/ha [2, 10]: 30 to 44%; pest or weed control at 140 g/ha [2, 10]: 60 to 74%; pest or weed control at 35 g/ha [2, 11]: 95 to 100%; pest or weed control at 70 g/ha [2, 11]: 95 to 100%; pest or weed control at 140 g/ha [2, 11]: 95 to 100%; pest or weed control at 35 g/ha [2, 12]: 0 to 29%; pest or weed control at 70 g/ha [2, 12]: 0 to 29%; pest or weed control at 140 g/ha [2, 12]: 0 to 29%; pest or weed control at 35 g/ha [2, 13]: 0 to 29%; pest or weed control at 70 g/ha [2, 13]: 0 to 29%; pest or weed control at 140 g/ha [2, 13]: 0 to 29%; pest or weed control at 35 g/ha [2, 14]: 95 to 100%; pest or weed control at 70 g/ha [2, 14]: 95 to 100%; pest or weed control at 140 g/ha [2, 14]: 95 to 100%
2 | Nc1c(F)c(-c2ccc(Br)c3c2OC(F)(F)O3)nc(C(=O)O)c1Cl [Compound 80] | 95 to 100% | 95 to 100% | 95 to 100% | 85 to 94% | 85 to 94% | 85 to 94% | 95 to 100% | 95 to 100% | 95 to 100% | 85 to 94% | 85 to 94% | 85 to 94% | 60 to 74% | 75 to 84% | 85 to 94% | 0 to 29% | 0 to 29% | 0 to 29% | 0 to 29% | 0 to 29% | pest or weed control at 140 g/ha [2, 9]: 0 to 29%; pest or weed control at 35 g/ha [2, 10]: 0 to 29%; pest or weed control at 70 g/ha [2, 10]: 0 to 29%; pest or weed control at 140 g/ha [2, 10]: 0 to 29%; pest or weed control at 35 g/ha [2, 11]: 45 to 59%; pest or weed control at 70 g/ha [2, 11]: 60 to 74%; pest or weed control at 140 g/ha [2, 11]: 60 to 74%; pest or weed control at 35 g/ha [2, 12]: 0 to 29%; pest or weed control at 70 g/ha [2, 12]: 0 to 29%; pest or weed control at 140 g/ha [2, 12]: 0 to 29%; pest or weed control at 35 g/ha [2, 13]: 0 to 29%; pest or weed control at 70 g/ha [2, 13]: 0 to 29%; pest or weed control at 140 g/ha [2, 13]: 0 to 29%; pest or weed control at 35 g/ha [2, 14]: 0 to 29%; pest or weed control at 70 g/ha [2, 14]: 0 to 29%; pest or weed control at 140 g/ha [2, 14]: 0 to 29%

From patent US9149038B2, “4-amino-6-(heterocyclic)picolinates and 6-amino-2-(heterocyclic)pyrimidine-4-carboxylates and their use as herbicides” (Dow AgroSciences LLC, priority 2013, dated 2015)
